Activity calls are given as the source filed them.
Key:
[1] = biological target: E3 ubiquitin-protein ligase Mdm2 (Homo sapiens, UniProt Q00987); test: enhancers of MDM2-luciferase reporter signal, concentration-effect titration, project on inhibitors of MDM2 ubiquitin ligase, cellular assay, luminescent readout, 384-well plate format (AID 1394); type: functional;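 also: MDM2 E3 inhibitors raise luminescence so EC50 is for signal enhancement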
[2] = biological target: Genome polyprotein (dengue virus type 2, UniProt P29990); test: Dengue-2 NS5 methyltransferase inhibitors, primary screen, biochemical, confirmation dose response (AID 588689); type: functional
[3] = biological target: Glutathione-S-transferase (Schistosoma japonicum, UniProt Q26513); test: biotin-GST/anti-GST TR-FRET signal inhibitors, dose response, artefact control for Vif-APOBEC3G degradation inhibitor project, biochemical (AID 1117362); type: functional
[4] = biological target: Bifunctional protein GlmU (Mycobacterium tuberculosis, UniProt P9WMN3); test: Inhibitors of Mycobacterial Glucosamine-1-phosphate acetyl transferase (GlmU). Secondary screen.; design: species or system Mycobacterium tuberculosis H37Rv
[5] = biological target: G-protein coupled receptor 55 (Homo sapiens, UniProt Q9Y2T6); test: GPR55 antagonists blocking LPI-driven arrestin recruitment, primary screen, imaging, U2OS, beta-arrestin-GFP, LPI agonist (AID 2013); type: functional;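 also: antagonist potency measured as reduced agonist-driven arrestin aggregation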
[6] = biological target: G-protein coupled receptor 35 (Homo sapiens, UniProt Q9HC97); test: GPR35 antagonists blocking zaprinast-driven arrestin recruitment, primary screen, imaging, U2OS, beta-arrestin-GFP, zaprinast agonist (AID 2058); type: functional;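 also: antagonist potency meaning inhibition of agonist-induced arrestin redistribution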
[7] = P. falciparum Dd2 growth inhibitors, dose response, SYBR Green, dry powder samples (AID 1159566); type: functional, cell-based;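 also: potency for growth inhibition with lower SYBR green DNA signal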
[8] = P. falciparum Dd2 growth inhibitors, dose response, SYBR Green, cherry-picked samples (AID 1159567); type: functional, cell-based
[9] = test system: HEK293; test: cells; conditions: Homo sapiens
[10] = CEM21 lymphoblast cell cytotoxicity, dose response, cytotoxicity control for viral fusion inhibitor project, CellTiter-Glo luminescence, cherry-picked (AID 652042); type: functional, cell-based;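 also: potency for signal decrease meaning cytotoxicity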
[11] = P. falciparum ATP4 D1247Y mutant growth inhibitors, dose response, NITD609-resistant line, SYBR Green, dry powder (AID 1159571); type: functional, cell-based;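 also: parasites synchronized at ring stage by sorbitol before testing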
[12] = ZM109 Env clade C HIV-1 fusion inhibitors, dose response, HeLa effector, CEM target cells, luciferase, cherry-pick (AID 652058); type: functional, cell-based
[13] = inhibitors of HIV Env-driven cell fusion, dose response, cherry-pick (AID 652057); type: functional, cell-based
[14] = inhibitors of clade B AD8 Env fusion, dose response, cell-based, cherry-pick (AID 652062); type: functional;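 also: luciferase signal from cell-cell fusion driven by HIV-1 clade B AD8 Env; potency is for inhibitors of fusion seen as a drop in luminescence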
[15] = off-target signal loss in HeLa-CEM21 co-culture – HeLa F-luc CTL cells, cherry-picked, counter-screen for HIV-1 Env fusion inhibitor project, dose response (AID 652040); type: functional, cell-based;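 also: potency for signal decrease marking cytotoxic or nonspecific inhibition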
[16] = test system: HEK293; test: cells; conditions: Homo sapiens; remark: listed apart in the source
[17] = P. falciparum 3D7-ScDHODH growth inhibitors, dose response, SYBR Green, dry powder samples (AID 1159570); type: functional, cell-based;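 also: parasite growth measured after 72 hours of compound exposure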
[18] = HepG2 cell cytotoxicity, dose response, cytotoxicity control, plate reader, dry powder samples (AID 1159569); type: functional, cell-based;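 also: inhibitor potency with signal falling toward the positive control level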
[19] = THP-1 cell cytotoxicity, dose response, cytotoxicity control for non-replicating M. tuberculosis project (AID 489025); type: functional
[20] = biological target: T1, Heat shock factor protein 1 (Mus musculus, UniProt P38532); test: inhibition of MG132-induced HSE-luciferase signal, confirmation, cell-based, NIH3T3, luminescence, dose retest (AID 2382); type: functional;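 also: NIH3T3 fibroblasts with HSF1-driven luciferase reporter stressed by proteasome inhibitor MG132; luminescence from HSF1-driven luciferase expression after 8 hours of MG132 stress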
T1 sequence (P38532 whole entry): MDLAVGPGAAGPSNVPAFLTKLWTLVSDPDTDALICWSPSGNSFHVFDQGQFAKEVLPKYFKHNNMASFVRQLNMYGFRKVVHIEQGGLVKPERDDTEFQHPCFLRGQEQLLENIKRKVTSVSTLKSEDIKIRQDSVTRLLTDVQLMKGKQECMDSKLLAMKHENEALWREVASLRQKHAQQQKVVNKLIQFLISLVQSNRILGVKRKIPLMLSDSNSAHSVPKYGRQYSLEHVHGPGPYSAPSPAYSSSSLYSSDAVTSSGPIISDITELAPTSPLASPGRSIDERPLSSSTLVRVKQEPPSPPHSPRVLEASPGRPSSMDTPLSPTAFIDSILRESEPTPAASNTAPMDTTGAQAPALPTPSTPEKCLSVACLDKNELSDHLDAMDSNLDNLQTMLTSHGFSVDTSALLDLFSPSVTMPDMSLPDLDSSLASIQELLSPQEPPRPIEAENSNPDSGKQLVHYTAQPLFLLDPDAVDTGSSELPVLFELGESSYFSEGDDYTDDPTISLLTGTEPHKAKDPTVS

[21] = biological target: T2, Protein skinhead-1 (Caenorhabditis elegans, UniProt P34707); type: functional
T2 sequence (P34707 whole entry): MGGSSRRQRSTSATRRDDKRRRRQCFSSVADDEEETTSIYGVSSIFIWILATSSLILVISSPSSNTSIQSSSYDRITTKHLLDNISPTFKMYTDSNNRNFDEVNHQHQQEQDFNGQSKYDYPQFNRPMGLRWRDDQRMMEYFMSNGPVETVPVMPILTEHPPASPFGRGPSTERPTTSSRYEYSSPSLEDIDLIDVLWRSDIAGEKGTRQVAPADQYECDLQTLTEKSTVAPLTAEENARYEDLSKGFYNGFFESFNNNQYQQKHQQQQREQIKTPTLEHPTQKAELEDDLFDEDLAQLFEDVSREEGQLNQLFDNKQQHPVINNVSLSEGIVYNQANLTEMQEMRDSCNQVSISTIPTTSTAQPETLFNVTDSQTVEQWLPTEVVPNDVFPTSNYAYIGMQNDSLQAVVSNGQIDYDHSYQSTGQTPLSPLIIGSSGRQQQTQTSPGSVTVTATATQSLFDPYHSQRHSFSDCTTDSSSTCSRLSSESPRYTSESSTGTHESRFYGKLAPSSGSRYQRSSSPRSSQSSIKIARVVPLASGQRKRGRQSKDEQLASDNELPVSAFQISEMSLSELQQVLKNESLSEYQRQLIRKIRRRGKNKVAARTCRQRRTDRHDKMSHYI

[22] = Vero E6 cell cytotoxicity, dose response, cytotoxicity control for non-replicating M. tuberculosis project, secondary assay (AID 492998); type: functional, VeroE6; conditions: Vero C1008
[23] = Vero cell cytotoxicity, dose response, cytotoxicity control for Vif-APOBEC3G degradation inhibitor project, Vero cells (AID 1117358); type: functional; conditions: Human immunodeficiency virus 1, Vero
[24] = biological target: T3, Leucine aminopeptidase (Plasmodium falciparum 3D7, UniProt Q8IL11); test: P. falciparum M17LAP inhibitors, primary screen, biochemical, fluorogenic H-Leu-NHMec substrate, 1536-well (AID 1619); type: functional
T3 sequence (Q8IL11 whole entry): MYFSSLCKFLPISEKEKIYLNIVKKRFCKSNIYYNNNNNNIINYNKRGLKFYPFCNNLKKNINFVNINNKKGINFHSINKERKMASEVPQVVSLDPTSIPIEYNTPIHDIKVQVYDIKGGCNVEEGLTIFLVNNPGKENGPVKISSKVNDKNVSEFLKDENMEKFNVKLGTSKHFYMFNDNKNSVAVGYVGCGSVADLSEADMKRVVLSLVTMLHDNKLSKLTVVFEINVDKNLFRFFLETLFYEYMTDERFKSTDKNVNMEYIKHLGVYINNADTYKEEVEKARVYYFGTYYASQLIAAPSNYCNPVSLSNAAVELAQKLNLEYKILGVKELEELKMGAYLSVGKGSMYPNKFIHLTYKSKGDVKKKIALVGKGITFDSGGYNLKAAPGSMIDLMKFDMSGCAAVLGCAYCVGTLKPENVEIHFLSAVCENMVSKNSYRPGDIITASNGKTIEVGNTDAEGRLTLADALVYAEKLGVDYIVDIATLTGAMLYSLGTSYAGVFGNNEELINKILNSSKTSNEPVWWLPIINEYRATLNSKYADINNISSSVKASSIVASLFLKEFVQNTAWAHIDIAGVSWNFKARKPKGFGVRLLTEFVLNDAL

Sequence of Bifunctional protein GlmU (P9WMN3 whole entry): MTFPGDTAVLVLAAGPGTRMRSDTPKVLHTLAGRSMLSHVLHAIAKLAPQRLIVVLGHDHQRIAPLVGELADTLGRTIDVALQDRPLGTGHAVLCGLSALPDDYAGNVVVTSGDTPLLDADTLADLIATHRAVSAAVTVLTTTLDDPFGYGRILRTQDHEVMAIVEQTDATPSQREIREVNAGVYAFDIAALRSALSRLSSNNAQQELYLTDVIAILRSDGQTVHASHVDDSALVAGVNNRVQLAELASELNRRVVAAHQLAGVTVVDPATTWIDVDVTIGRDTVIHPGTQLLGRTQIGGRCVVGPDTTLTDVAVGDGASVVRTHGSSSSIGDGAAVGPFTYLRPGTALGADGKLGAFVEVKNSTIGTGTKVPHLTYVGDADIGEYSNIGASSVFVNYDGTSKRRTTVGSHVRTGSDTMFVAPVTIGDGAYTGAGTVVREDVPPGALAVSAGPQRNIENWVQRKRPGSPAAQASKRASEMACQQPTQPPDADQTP
Sequence of G-protein coupled receptor 55 (Q9Y2T6 whole entry): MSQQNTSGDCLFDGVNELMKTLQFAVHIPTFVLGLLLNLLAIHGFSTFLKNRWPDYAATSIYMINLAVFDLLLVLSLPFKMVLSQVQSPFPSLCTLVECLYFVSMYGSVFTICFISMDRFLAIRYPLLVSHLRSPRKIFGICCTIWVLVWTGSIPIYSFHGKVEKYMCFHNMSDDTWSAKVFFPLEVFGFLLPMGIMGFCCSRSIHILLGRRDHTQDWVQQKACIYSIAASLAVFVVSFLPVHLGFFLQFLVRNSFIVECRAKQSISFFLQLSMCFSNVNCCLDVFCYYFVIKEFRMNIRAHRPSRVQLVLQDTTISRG
Sequence of E3 ubiquitin-protein ligase Mdm2 (Q00987 whole entry): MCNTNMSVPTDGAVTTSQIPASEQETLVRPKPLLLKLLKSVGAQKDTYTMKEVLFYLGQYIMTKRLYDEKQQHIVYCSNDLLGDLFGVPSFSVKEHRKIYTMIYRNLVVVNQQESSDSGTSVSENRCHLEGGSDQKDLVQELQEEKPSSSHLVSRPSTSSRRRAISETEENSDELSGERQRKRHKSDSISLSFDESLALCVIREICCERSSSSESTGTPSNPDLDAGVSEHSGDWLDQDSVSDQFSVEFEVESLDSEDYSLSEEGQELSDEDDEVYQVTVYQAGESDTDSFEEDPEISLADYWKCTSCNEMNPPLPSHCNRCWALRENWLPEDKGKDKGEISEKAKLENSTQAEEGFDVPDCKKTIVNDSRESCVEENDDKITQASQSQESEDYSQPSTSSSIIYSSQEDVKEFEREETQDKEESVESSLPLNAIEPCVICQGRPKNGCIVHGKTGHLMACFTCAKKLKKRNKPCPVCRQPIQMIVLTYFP
Sequence of G-protein coupled receptor 35 (Q9HC97 whole entry): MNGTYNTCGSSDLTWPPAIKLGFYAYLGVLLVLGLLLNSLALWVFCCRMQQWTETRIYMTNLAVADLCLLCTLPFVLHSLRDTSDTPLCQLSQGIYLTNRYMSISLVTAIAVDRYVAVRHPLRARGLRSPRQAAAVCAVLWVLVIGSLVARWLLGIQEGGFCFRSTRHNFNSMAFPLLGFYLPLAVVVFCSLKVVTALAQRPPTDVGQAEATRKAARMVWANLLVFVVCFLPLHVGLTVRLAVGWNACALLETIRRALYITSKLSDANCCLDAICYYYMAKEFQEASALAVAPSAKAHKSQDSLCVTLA
Sequence of Genome polyprotein (P29990 2492-3391 limits assumed): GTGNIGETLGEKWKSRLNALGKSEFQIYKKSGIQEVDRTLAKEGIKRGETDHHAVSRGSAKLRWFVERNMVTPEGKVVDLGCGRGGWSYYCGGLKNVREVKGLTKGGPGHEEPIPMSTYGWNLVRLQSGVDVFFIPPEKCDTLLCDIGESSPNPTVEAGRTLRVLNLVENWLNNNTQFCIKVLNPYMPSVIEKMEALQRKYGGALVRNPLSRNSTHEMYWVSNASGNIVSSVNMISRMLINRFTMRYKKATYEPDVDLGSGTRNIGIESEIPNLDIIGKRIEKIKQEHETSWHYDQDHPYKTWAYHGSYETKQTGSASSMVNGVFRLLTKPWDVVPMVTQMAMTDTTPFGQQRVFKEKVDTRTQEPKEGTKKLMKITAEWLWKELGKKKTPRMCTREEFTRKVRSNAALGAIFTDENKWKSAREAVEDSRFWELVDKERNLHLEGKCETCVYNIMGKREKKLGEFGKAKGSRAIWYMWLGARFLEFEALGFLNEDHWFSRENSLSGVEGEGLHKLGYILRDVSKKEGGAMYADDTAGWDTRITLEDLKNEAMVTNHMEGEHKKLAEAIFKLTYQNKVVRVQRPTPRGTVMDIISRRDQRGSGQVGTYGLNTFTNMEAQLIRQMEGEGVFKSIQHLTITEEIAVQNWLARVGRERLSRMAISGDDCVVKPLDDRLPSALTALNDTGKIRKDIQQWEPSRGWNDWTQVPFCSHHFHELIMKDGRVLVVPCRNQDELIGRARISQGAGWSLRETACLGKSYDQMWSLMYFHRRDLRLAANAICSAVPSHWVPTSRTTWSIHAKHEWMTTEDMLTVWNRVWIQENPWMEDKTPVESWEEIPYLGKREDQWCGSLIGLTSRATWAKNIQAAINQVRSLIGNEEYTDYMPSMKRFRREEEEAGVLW
Sequence of Glutathione-S-transferase (Q26513 whole entry): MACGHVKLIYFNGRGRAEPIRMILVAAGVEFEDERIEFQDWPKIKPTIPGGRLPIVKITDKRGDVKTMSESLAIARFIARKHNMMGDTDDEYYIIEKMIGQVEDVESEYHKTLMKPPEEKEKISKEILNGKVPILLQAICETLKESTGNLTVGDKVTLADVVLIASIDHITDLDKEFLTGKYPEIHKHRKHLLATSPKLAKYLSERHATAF

COc1ccc(Nc2nc(C(=O)N3CCc4ccccc4C3)cs2)cc1
EC50 [1]: 12.3 µM (not active)

O=C1CC=C2C3CC4N(CCC45c4cc(O)c(O)cc4N1C25)CC3=CCBr (stereo not given)
IC50 [2]: 31.5 µM (active) | IC50 [3]: 3.05 µM (active)

O=C1C=CC(=O)N1CCCCCCN1C(=O)C=CC1=O
IC50 [4]: 118 µM (active) | IC50 [5]: 9.79 µM (active) | IC50 [6]: 6.23 µM (active)

Cc1ccc(S(=O)(=O)N(C)C[C@@H]2OCc3ccccc3-c3c(n(C)c4ccccc34)C(=O)N([C@H](C)CO)C[C@@H]2C)cc1
AC50 [7]: 65.5 nM (active) | AC50 [8]: 676 nM (active) | EC50 [9]: > 59.6 µM (inactive) | AC50 [10]: 29.6 µM (active) | AC50 [11]: 106 nM (active) | AC50 [12]: 2 µM (active) | AC50 [13]: 1.87 µM (active) | AC50 [14]: 2.16 µM (active) | AC50 [15]: 1.66 µM (active) | EC50 [16]: > 59.6 µM (inactive) | AC50 [17]: 151 nM (active) | AC50 [18]: 52.3 µM (active)

CCN1C(C(=O)c2ccccc2)=C(O)c2ccccc2S1(=O)=O
CC50 [19]: 26.2 µM (active) | EC50 [20]: > 195 µM (not active) | IC50 [21]: > 100 µM (inactive) | CC50 [22]: 19.2 µM (active) | CC50 [23]: 24.3 µM (active)

O=C(O)c1cccc(-c2ccc(/C=N/NC(=O)c3cccnc3)o2)c1
IC50 [4]: 185 µM (active) | IC50 [24]: 37.5 µM (active)

Source: ChEMBL document CHEMBL1201862, “PubChem BioAssay data set” (2004)
